pIC50: −log10 of the molar value.
What follows are compounds tested against T1, Human GO (Homo sapiens, UniProt Q9UJM8) (assay: GO enzymatic assay (coupled fluorescence/HRP assay, glycolate substrate)). Conditions: Table 4; read-out: Range (range of IC50 values calculated from the enzymatic assays).
T1 construct: purchased Novus Biologicals NBP1-72412
T1 sequence (Q9UJM8 1-370): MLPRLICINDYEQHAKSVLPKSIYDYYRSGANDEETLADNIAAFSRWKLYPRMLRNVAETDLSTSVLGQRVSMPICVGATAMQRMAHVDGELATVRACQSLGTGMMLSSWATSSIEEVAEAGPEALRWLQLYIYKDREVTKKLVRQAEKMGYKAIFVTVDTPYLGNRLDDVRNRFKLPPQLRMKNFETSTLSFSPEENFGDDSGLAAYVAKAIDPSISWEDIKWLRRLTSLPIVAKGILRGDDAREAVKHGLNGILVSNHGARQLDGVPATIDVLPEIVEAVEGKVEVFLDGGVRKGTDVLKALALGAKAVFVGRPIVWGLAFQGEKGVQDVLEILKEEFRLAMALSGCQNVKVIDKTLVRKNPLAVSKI
Assay type: biochemical
How it was run: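 Human GO incubated with glycolate substrate in 50 mM potassium phosphate, pH 7, with varying inhibitor concentrations. Activity read by coupled HRP fluorescence. IC50 taken from variable-slope sigmoidal dose-response fits of percent inhibition relative to DMSO control.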

pIC50	SMILES
> 7.00	C[C@]1(c2ccc(OC(F)(F)F)cc2)CC[C@@H](Oc2nn[nH]c2C(=O)O)CC1 [Compound 444, 4-(((1s,4s)-4-methyl-4-(4-(trifluoromethoxy)phenyl)cyclohexyl)oxy)-1H-1,2,3-triazole-5-carboxylic acid]
> 7.00	O=C(O)c1[nH]nnc1O[C@H]1CC[C@H](c2ccc(OC3CC3)cc2)CC1 [Example 446, 4-(((trans)-4-(4-cyclopropoxyphenyl)cyclohexyl)oxy)-1H-1,2,3-triazole-5-carboxylic acid]
> 7.00	O=C(O)c1[nH]nnc1O[C@H]1CC[C@H](c2ccc(F)cc2)CC1 [Example 447, 4-(((trans)-4-(4-fluorophenyl)cyclohexyl)oxy)-1H-1,2,3-triazole-5-carboxylic acid]
> 7.00	O=C(O)c1[nH]nnc1Oc1ccc(-c2ccc(-n3cccn3)cc2)cc1 [Example 450, 4-((4′-(1H-pyrazol-1-yl)-[1,1′-biphenyl]-4-yl)oxy)-1H-1,2,3-triazole-5-carboxylic acid 2,2,2-trifluoroacetate]
> 7.00	O=C(O)c1[nH]nnc1N[C@H]1CC[C@H](c2ccc(OC(F)(F)F)cc2)CC1 [Example 451, 4-(((trans)-4-(4-(trifluoromethoxy)phenyl)cyclohexyl)amino)-1H-1,2,3-triazole-5-carboxylic acid]
> 7.00	O=C(O)c1[nH]nnc1N[C@H]1CC[C@@H](c2ccc(OC(F)(F)F)cc2)CC1 [Example 452, 4-(((cis)-4-(4-(trifluoromethoxy)phenyl)cyclohexyl)amino)-1H-1,2,3-triazole-5-carboxylic acid]
6.00 to 7.00	O=C(O)c1[nH]nnc1OC1CCC(O)(c2ccc(OC(F)(F)F)cc2)CC1 (centres unmarked) [Example 453, 4-((4-hydroxy-4-(4-(trifluoromethoxy)phenyl)cyclohexyl)oxy)-1H-1,2,3-triazole-5-carboxylic acid]
> 7.00	O=C(O)c1[nH]nnc1OC1CC=C(c2ccc(OC(F)(F)F)cc2)CC1 (centres unmarked) [Example 454, 4-((4′-(trifluoromethoxy)-2,3,4,5-tetrahydro-[1,1′-biphenyl]-4-yl)oxy)-1H-1,2,3-triazole-5-carboxylic acid]
> 7.00	O=C(O)c1[nH]nnc1OC1C[C@@H]2CC(c3ccc(OC(F)(F)F)cc3)C[C@@H]2C1 (stereo partly drawn) [Example 455, 4-(((cis-3a,6a)-5-(4-(trifluoromethoxy)phenyl)octahydropentalen-2-yl)oxy)-1H-1,2,3-triazole-5-carboxylic acid]
6.00 to 7.00	O=C(O)c1[nH]nnc1CO[C@H]1CC[C@H](c2ccc(OC(F)(F)F)cc2)CC1 [Example 456, 4-((((trans)-4-(4-(trifluoromethoxy)phenyl)cyclohexyl)oxy)methyl)-1H-1,2,3-triazole-5-carboxylic acid]
> 7.00	NS(=O)(=O)c1ccc([C@H]2CC[C@H](Oc3nn[nH]c3C(=O)O)CC2)cc1 [Example 457, 4-(((trans)-4-(4-sulfamoylphenyl)cyclohexyl)oxy)-1H-1,2,3-triazole-5-carboxylic acid]
> 7.00	O=C(O)c1[nH]nnc1S[C@H]1CC[C@H](c2ccc(-n3cccn3)cc2)CC1 [Example 459, 4-(((trans)-4-(4-(1H-pyrazol-1-yl)phenyl)cyclohexyl)thio)-1H-1,2,3-triazole-5-carboxylic acid 2,2,2-trifluoroacetate]
> 7.00	O=C(O)c1[nH]nnc1O[C@H]1CC[C@H](c2ccc(OCC3CCCCC3)cc2)CC1 [Example 460, 4-(((trans)-4-(4-(cyclohexylmethoxy)phenyl)cyclohexyl)oxy)-1H-1,2,3-triazole-5-carboxylic acid]
> 7.00	O=C(O)c1[nH]nnc1SC1C[C@@H]2CC(c3ccc(OC(F)(F)F)cc3)C[C@@H]2C1 (stereo partly drawn) [Example 461, 4-(((cis-3a,6a)-5-(4-(trifluoromethoxy)phenyl)octahydropentalen-2-yl)thio)-1H-1,2,3-triazole-5-carboxylic acid]
> 7.00	O=C(O)c1[nH]nnc1O[C@H]1CC[C@H](c2ccc(OCCC3CCCCC3)cc2)CC1 [Example 462, 4-(((trans)-4-(4-(2-cyclohexylethoxy)phenyl)cyclohexyl)oxy)-1H-1,2,3-triazole-5-carboxylic acid]
> 7.00	O=C(O)c1[nH]nnc1O[C@H]1CC[C@H](c2ccc(OCCCO)cc2)CC1 [Example 463, 4-(((trans)-4-(4-(3-hydroxypropoxy)phenyl)cyclohexyl)oxy)-1H-1,2,3-triazole-5-carboxylic acid]
> 7.00	CC(C)c1cc(-c2ccc([C@H]3CC[C@H](Oc4nn[nH]c4C(=O)O)CC3)cc2)[nH]n1 [Example 464, 4-(((trans)-4-(4-(3-isopropyl-1H-pyrazol-5-yl)phenyl)cyclohexyl)oxy)-1H-1,2,3-triazole-5-carboxylic acid 2,2,2-trifluoroacetate]
6.00 to 7.00	CN(c1nn[nH]c1C(=O)O)[C@H]1CC[C@@H](c2ccc(OC(F)(F)F)cc2)CC1 [Example 465, 4-(methyl((cis)-4-(4-(trifluoromethoxy)phenyl)cyclohexyl)amino)-1H-1,2,3-triazole-5-carboxylic acid]
> 7.00	O=C(O)c1[nH]nnc1O[C@H]1CC[C@H](c2ccc(-c3ccn[nH]3)c(CO)c2)CC1 [Example 466, 4-(((trans)-4-(3-(hydroxymethyl)-4-(1H-pyrazol-5-yl)phenyl)cyclohexyl)oxy)-1H-1,2,3-triazole-5-carboxylic acid]
> 7.00	O=C(O)c1[nH]nnc1O[C@H]1CC[C@@H](c2ccc(-c3ccn[nH]3)c(CO)c2)CC1 [Example 467, 4-(((cis)-4-(3-(hydroxymethyl)-4-(1H-pyrazol-5-yl)phenyl)cyclohexyl)oxy)-1H-1,2,3-triazole-5-carboxylic acid 2,2,2-trifluoroacetate]
> 7.00	CN1CCN(c2ccc([C@H]3CC[C@H](Oc4nn[nH]c4C(=O)O)CC3)cc2)CC1 [Example 468, 4-(((trans)-4-(4-(4-methylpiperazin-1-yl)phenyl)cyclohexyl)oxy)-1H-1,2,3-triazole-5-carboxylic acid 2,2,2-trifluoroacetate]
> 7.00	CC(C)(O)Cn1ccc(-c2ccc([C@H]3CC[C@H](Oc4nn[nH]c4C(=O)O)CC3)cc2)n1 [Example 469, 4-(((trans)-4-(4-(1-(2-hydroxy-2-methylpropyl)-1H-pyrazol-3-yl)phenyl)cyclohexyl)oxy)-1H-1,2,3-triazole-5-carboxylic acid 2,2,2-trifluoroacetate]
> 7.00	O=C(O)c1[nH]nnc1O[C@H]1CC[C@H](c2ccc(-c3ccnn3CC3(O)CCCCC3)cc2)CC1 [Example 471, 4-(((trans)-4-(4-(1-((1-hydroxycyclohexyl)methyl)-1H-pyrazol-5-yl)phenyl)cyclohexyl)oxy)-1H-1,2,3-triazole-5-carboxylic acid 2,2,2-trifluoroacetate]
> 7.00	NCCCOc1ccc([C@H]2CC[C@H](Oc3nn[nH]c3C(=O)O)CC2)cc1 [Example 472, 4-(((trans)-4-(4-(3-aminopropoxy)phenyl)cyclohexyl)oxy)-1H-1,2,3-triazole-5-carboxylic acid 2,2,2-trifluoroacetate]
> 7.00	CCC(CC)c1cc(-c2ccc([C@H]3CC[C@H](Oc4nn[nH]c4C(=O)O)CC3)cc2)[nH]n1 [Example 473, 4-(((trans)-4-(4-(3-(pentan-3-yl)-1H-pyrazol-5-yl)phenyl)cyclohexyl)oxy)-1H-1,2,3-triazole-5-carboxylic acid]
> 7.00	CNCCCOc1ccc([C@H]2CC[C@H](Oc3nn[nH]c3C(=O)O)CC2)cc1 [Example 474, 4-(((trans)-4-(4-(3-(methylamino)propoxy)phenyl)cyclohexyl)oxy)-1H-1,2,3-triazole-5-carboxylic acid 2,2,2-trifluoroacetate]
> 7.00	CN(C)CCCOc1ccc([C@H]2CC[C@H](Oc3nn[nH]c3C(=O)O)CC2)cc1 [Example 478, 4-(((trans)-4-(4-(3-(dimethylamino)propoxy)phenyl)cyclohexyl)oxy)-1H-1,2,3-triazole-5-carboxylic acid 2,2,2-trifluoroacetate]
> 7.00	CCC(O)(CC)Cn1nccc1-c1ccc([C@H]2CC[C@H](Oc3nn[nH]c3C(=O)O)CC2)cc1 [Example 479, 4-(((trans)-4-(4-(1-(2-ethyl-2-hydroxybutyl)-1H-pyrazol-5-yl)phenyl)cyclohexyl)oxy)-1H-1,2,3-triazole-5-carboxylic acid]
> 7.00	CC(C)(O)Cn1nccc1-c1ccc([C@H]2CC[C@H](Oc3nn[nH]c3C(=O)O)CC2)cc1 [Example 480, 4-(((trans)-4-(4-(1-(2-hydroxy-2-methylpropyl)-1H-pyrazol-5-yl)phenyl)cyclohexyl)oxy)-1H-1,2,3-triazole-5-carboxylic acid]
> 7.00	O=C(O)c1[nH]nnc1O[C@H]1CC[C@H](c2ccc(Cl)c(C3CCC3)c2)CC1 [Example 482, 4-(((trans)-4-(4-chloro-3-cyclobutylphenyl)cyclohexyl)oxy)-1H-1,2,3-triazole-5-carboxylic acid]

SMILES	pIC50
O=C(O)c1[nH]nnc1Oc1ccc(Cl)c(OC2CCC2)c1 [Example 448, 4-(4-chloro-3-cyclobutoxyphenoxy)-1H-1,2,3-triazole-5-carboxylic acid]	> 7.00
O=C(O)c1[nH]nnc1OC1CC(c2ccc(OC(F)(F)F)cc2)C1 (centres unmarked) [Example 449, 4-(3-(4-(trifluoromethoxy)phenyl)cyclobutoxy)-1H-1,2,3-triazole-5-carboxylic acid]	> 7.00
